We go through eleven molecules from patent US9040502B2, “Anti-XDR-TB drug, anti-MDR-TB drug, and combination anti-tuberculosis drug” (priority 2008, dated 2015).

In test [1] the test system is M. tuberculosis XDR-TB (0306-0206). The test is classed as in vivo, Mycobacterium tuberculosis in BALB/c mice. Conditions: BALB/c mice, i.v. infection; s.c., 14 doses; CPZEN-45 6.3-200 mg/kg, SM 25-200 mg/kg; Day 30.
Test [2] relates to M. tuberculosis MDR (RFP, INH, KM, SM EB, TH). Put plainly: MIC, agar multiple dilution method (Test Example 2). It is filed as cell-based. Conditions: Mycobacterium tuberculosis, 336 h.
The test system of test [3] is M. tuberculosis MDR (RFP, INH). Described as above. It is filed as cell-based. Conditions: Mycobacterium tuberculosis, 336 h.
In test [4] the test system is M. tuberculosis MDR (RFP, INH, KM EB, TH, PAS, EVM). The description is as above. It is filed as cell-based. Conditions: Mycobacterium tuberculosis, 336 h.
Test [5] concerns M. tuberculosis XDR (RFP, INH, KM EB, TH, PAS, EVM, LVFX). The description is as above. It is filed as cell-based. Conditions: Mycobacterium tuberculosis, 336 h.
For test [6], the system named is Mycobacterium tuberculosis XDR-TB (0306-0206). It is filed as cell-based. Conditions: Ratio Method.

Converted amounts (≈) assume the structure as drawn. Read-outs that look alike come from different tables or passages of the source. Bounds are passed on as bounds.

For the molecule `CCCCc1ccc(NC(=O)C2=CCN(C)[C@@H]([C@H](O[C@@H]3O[C@H](CN)[C@@H](O)[C@H]3O)[C@H]3O[C@@H](n4ccc(=O)[nH]c4=O)[C@H](O)[C@@H]3O)C(=O)N2C)cc1` [CPZEN-45, (S)-2-{[(2S,3R,4S,5R)-(5-aminomethyl-3,4-dihydroxyoxolan-2-yl)oxy][(2S,3S,4R,5R)-5-(2,4-dioxo-1,2,3,4-tetrahydropyrimidin-1-yl)-3,4-dihydroxyoxolan-2-yl]-(S)-methyl}-N-(4-butylphenyl)-1,4-dimethyl-3-oxo-1H-1,4-diazepine-5-carboxamide], in test [1], the “Antibacterial effects (number of tuberculosis bacteria in lungs, liver and spleen, FIGS. 3 to 5)” value was “antibacterial effects significantly higher than those of SM”. The minimal inhibitory concentration (MIC) in test [2], in test [3], in test [4] and in test [5] was 6.25 µg/mL (≈ 9.07 µM) each time.
Regarding `N[C@@H]1CON=C1O` [CS, cycloserine], the “Determination (drug sensitivity)” value in test [6] (drug concentration 30 μg/mL) is “S”.
On to `CC[C@@H](CO)NCCN[C@@H](CC)CO` [EB, ethambutol], for which, in test [6] (drug concentration 2.5 μg/mL), the “Determination (drug sensitivity)” value was “R”.
As to `NNC(=O)c1ccncc1` [INH, isonicotinic acid hydrazide], the “Determination (drug sensitivity)” value in test [6] (drug concentration 1.0 μg/mL) was “R”.
For `NC[C@H]1O[C@H](O[C@H]2[C@H](O)[C@@H](O[C@H]3O[C@H](CO)[C@@H](O)[C@H](N)[C@H]3O)[C@H](N)C[C@@H]2N)[C@H](O)[C@@H](O)[C@@H]1O` [KM, kanamycin], the “Determination (drug sensitivity)” value in test [6] (drug concentration 20 μg/mL) is “R”.
As for `C[C@H]1COc2c(N3CCN(C)CC3)c(F)cc3c(=O)c(C(=O)O)cn1c23` [LVFX, levofloxacin], in test [6] (drug concentration 1.0 μg/mL), the “Determination (drug sensitivity)” value is on record as “R”.
As for `Nc1ccc(C(=O)O)c(O)c1` [PAS, para-amino-salicylic acid], the “Determination (drug sensitivity)” value in test [6] (drug concentration 0.5 μg/mL) is “R”.
For the molecule `CO[C@H]1/C=C/O[C@@]2(C)Oc3c(C)c(O)c4c(O)c(c(/C=N/N5CCN(C)CC5)c(O)c4c3C2=O)NC(=O)/C(C)=C\C=C\[C@H](C)[C@H](O)[C@@H](C)[C@@H](O)[C@@H](C)[C@H](OC(C)=O)[C@@H]1C` [RFP, rifampicin], the minimal inhibitory concentration (MIC) in test [2], in test [3], in test [4] and in test [5] was more than 40 µg/mL throughout. The “Determination (drug sensitivity)” value in test [6] (drug concentration 40 μg/mL) was “R”.
For the molecule `[H]/N=C(/N)N[C@H]1[C@H](O)[C@@H](O)[C@H](O[C@@H]2O[C@@H](C)[C@](O)(C=O)[C@H]2O[C@@H]2O[C@@H](CO)[C@H](O)[C@@H](O)[C@@H]2NC)[C@@H](N/C(N)=N\[H])[C@@H]1O` [SM, streptomycin], the “Antibacterial effects (number of tuberculosis bacteria in lungs, liver and spleen, FIGS. 3 to 5)” value in test [1] is given as “no antibacterial effects”. In addition, the “Determination (drug sensitivity)” value in test [6] (drug concentration 10 μg/mL) is reported as “R”.
With `CCc1cc(C(N)=S)ccn1` [TH, ethionamide], the “Determination (drug sensitivity)” value in test [6] (drug concentration 20 μg/mL) was “R”.
On the same count and under the same terms, the same measure for enviomycin [EVM]: “R”.
